GI50 data for 14 compounds are collected here from patent US20240352021A1 (DANA-FARBER CANCER INSTITUTE, INC., priority 2021, published 2024).

Where two headings read alike, the source gives them in different places.

For assay [1], the target named is EGFR L858R/C797S Ba/F3 cells (Homo sapiens, UniProt P00533, C797S/L858R, cells depend on it). In words: Ba/F3 cell proliferation (Cell Titer Glo), EGFR L858R/C797S. As to conditions: 72 hours. The assay is classed as cell-based, murine. The text has this:
(§1) The EGFR mutant L858R Ba/F3 cells have been previously described (Zhou, W., et al. Nature 462, 2009, 1070-1074). The EGFR C797S and C775S mutations were introduced via site directed mutagenesis using the Quick Change Site-Directed Mutagenesis kit into a vector containing EGFR L858R mutation (Stratagene; La Jolla, CA) according to the manufacturer's instructions. All constructs were confirmed by DNA sequencing. The constructs were then shuttled into the retroviral vector JP1540 by either using the Cre-recombination system (Agilent Technologies, Santa Clara, CA) or the In-fusion HD Cloning kit (Takara Bio USA, Inc.; Mountain view, CA). Ba/F3 cells were then infected with retrovirus per standard protocols, as described previously (Zhou, et al, Nature 2009). Stable clones were obtained by selection in puromycin (2 μg/ml). All BaF/3 mutant cells were maintained in RPMI 1640 (Cellgro; Mediatech Inc., Herndon, CA) supplemented with 10% FBS, 100 units/mL penicillin, 100 units/mL streptomycin.
(§2) Growth and inhibition of growth was assessed by the Cell Titer Glo assay (Promega, Madison, WI) and was performed according to the manufacturer's instructions. The Cell Titer Glo assay is a luminescence-based method used to determine the number of viable cells based on quantitation of the ATP present, which is directly proportional to the amount of metabolically active cells present. Ba/F3 cells of different EGFR genotypes were exposed to compounds for 72 hours and the number of cells used per experiment was determined empirically as has been previously established (Zhou, et al., Nature 2009). All experimental points were set up in triplicates in 384-well plates. […] The curves were fitted using a non-linear regression model with a sigmoidal dose response.
(§3) Ba/F3 cells assay data are provided below in Table 5 and Table 6. For inhibitory activity against EGFR mutants, the following designations are used: <0.1 μM=A, 0.1 μM˜0.5 μM=B, 0.5 μM˜2.5 μM=C, ≥2.5 μM=D

Assay [2] deals with EGFR mutant L858R Ba/F3 cells (Homo sapiens, UniProt P00533, L858R, cells depend on it). Put plainly: Ba/F3 cell proliferation (Cell Titer Glo), EGFR L858R. The assay is classed as cell-based, murine. As to conditions: 72 hours.
Text: as §1, §2, §3
In general terms: Cellular ATP, detected with luciferase, serves as a proxy for viable cell number.

Chain of EGFR L858R/C797S Ba/F3 cells (P00533 whole entry C797S/L858R, the tested form may be a part): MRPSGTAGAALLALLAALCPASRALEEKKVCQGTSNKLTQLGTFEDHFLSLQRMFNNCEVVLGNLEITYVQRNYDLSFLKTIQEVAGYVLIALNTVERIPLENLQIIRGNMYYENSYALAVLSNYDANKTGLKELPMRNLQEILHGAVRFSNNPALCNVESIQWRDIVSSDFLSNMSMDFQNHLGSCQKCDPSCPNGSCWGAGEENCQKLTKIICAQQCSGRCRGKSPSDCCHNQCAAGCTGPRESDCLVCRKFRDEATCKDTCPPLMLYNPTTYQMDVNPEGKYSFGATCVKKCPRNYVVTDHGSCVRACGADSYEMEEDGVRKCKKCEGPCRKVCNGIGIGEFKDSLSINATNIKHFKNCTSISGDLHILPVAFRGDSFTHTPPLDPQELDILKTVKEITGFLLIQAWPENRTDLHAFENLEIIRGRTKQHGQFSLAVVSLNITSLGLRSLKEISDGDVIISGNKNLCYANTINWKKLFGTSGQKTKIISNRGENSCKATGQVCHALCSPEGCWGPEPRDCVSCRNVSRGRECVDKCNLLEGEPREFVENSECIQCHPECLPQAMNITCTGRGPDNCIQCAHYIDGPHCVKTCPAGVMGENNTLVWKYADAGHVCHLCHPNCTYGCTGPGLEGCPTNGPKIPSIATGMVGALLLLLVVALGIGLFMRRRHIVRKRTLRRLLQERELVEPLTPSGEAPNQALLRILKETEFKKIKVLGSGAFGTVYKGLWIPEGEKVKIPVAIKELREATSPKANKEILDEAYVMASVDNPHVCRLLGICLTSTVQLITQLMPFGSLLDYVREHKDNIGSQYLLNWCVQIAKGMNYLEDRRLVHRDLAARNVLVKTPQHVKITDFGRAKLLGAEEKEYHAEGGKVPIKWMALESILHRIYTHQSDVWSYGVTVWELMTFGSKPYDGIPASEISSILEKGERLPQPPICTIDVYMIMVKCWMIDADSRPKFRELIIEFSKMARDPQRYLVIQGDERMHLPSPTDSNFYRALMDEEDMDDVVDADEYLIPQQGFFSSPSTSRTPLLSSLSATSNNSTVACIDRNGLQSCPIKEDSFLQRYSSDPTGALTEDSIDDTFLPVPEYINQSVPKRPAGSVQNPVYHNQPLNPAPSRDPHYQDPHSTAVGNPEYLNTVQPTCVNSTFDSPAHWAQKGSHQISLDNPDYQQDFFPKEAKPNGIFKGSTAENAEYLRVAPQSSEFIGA
Chain of EGFR mutant L858R Ba/F3 cells (P00533 whole entry L858R): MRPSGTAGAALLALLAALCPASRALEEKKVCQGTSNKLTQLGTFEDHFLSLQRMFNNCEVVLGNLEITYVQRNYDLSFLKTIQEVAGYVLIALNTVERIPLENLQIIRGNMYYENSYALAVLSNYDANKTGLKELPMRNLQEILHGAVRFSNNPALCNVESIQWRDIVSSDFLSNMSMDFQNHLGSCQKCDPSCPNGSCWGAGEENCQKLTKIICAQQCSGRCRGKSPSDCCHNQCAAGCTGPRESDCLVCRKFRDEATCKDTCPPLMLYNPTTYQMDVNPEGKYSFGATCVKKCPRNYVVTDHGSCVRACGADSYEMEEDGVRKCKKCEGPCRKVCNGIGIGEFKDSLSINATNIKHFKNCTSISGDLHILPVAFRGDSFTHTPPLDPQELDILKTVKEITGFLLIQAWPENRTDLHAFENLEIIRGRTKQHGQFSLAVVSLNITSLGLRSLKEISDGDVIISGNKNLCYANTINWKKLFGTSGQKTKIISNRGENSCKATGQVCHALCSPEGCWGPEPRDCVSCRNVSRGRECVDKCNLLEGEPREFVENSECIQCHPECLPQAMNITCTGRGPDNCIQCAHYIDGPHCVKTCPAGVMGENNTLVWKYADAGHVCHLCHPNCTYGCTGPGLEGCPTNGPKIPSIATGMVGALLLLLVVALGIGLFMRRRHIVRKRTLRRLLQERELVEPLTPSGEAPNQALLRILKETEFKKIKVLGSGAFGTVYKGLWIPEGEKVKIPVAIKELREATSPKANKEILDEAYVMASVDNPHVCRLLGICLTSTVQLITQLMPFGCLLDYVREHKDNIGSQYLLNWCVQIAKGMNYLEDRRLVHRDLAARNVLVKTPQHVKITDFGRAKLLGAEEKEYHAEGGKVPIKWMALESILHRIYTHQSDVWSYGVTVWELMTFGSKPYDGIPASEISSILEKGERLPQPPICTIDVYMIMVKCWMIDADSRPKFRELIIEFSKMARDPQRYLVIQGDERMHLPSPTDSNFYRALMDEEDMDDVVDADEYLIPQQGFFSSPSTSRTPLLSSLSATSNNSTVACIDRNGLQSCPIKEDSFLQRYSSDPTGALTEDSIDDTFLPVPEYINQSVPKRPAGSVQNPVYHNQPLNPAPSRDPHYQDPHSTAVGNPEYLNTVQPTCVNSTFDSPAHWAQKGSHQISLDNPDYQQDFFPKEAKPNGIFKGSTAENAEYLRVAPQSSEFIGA

Take `C=CC(=O)Nc1ccccc1CN1Cc2cnc(Nc3ccc(N4CCN(C)CC4)cc3)nc2N(C)C1=O` [Compound 001, N-(2-((1-methyl-7-((4-(4-methylpiperazin-1-yl)phenyl)amino)-2-oxo-1,4-dihydropyrimido[4,5-d]pyrimidin-S(2H)-yl)methyl)phenyl)acrylamide]: the GI50 was 0.1 to 0.5 µM in assay [1] (Table 5) and 0.1 to 0.5 µM in assay [2] (Table 5, read-out: L858R BaF3).
`C=CC(=O)Nc1c(F)cccc1CN1Cc2cnc(Nc3ccc(N4CCN(C)CC4)cc3)nc2N(C)C1=O` [Compound 019]: the GI50 fell in the range of 0.5 to 2.5 µM in assay [1] (Table 5) and 0.1 to 0.5 µM in assay [2] (Table 5, read-out: L858R BaF3).
On to `C=CC(=O)Nc1cccc(CN2Cc3cnc(Nc4ccc(N5CCN(C)CC5)cc4)nc3N(C)C2=O)c1` [Compound 036], for which the GI50 was at least 2.5 µM in assay [1] (Table 5) and 0.5 to 2.5 µM in assay [2] (Table 5, read-out: L858R BaF3).
In the case of `C=CC(=O)Nc1cn(C)nc1CN1Cc2cnc(Nc3ccc(N4CCN(C)CC4)cc3)nc2N(C)C1=O` [Compound 046], the GI50 in assay [1] (Table 6) was at least 2.5 µM; in assay [2] (Table 6, read-out: L858R BaF3), at least 2.5 µM.
Regarding `C=CC(=O)N1CC(N2Cc3cnc(Nc4ccc(N5CCN(C)CC5)cc4)nc3N(C)C2=O)c2ccccc21` (stereo not drawn) [Compound 047, 1-methyl-7-[4-(4-methylpiperazin-1-yl)anilino]-S-(1-prop-2-enoylindolin-3-yl)-4H-pyrimido[4,5-d]pyrimidin-2-one], the GI50 lay within 0.1 to 0.5 µM in assay [1] (Table 6) and 0.1 to 0.5 µM in assay [2] (Table 6, read-out: L858R BaF3).
Turning to `C=CC(=O)N1CC[C@H](N2Cc3cnc(Nc4ccc(N5CCN(C)CC5)cc4)nc3N(C)C2=O)c2ccccc21` [Compound 048, 1-methyl-7-[4-(4-methylpiperazin-1-yl)anilino]-S-[(4S)-1-prop-2-enoyl-3,4-dihydro-2H-quinolin-4-yl]-4H-pyrimido[4,5-d]pyrimidin-2-one], the GI50 in assay [1] (Table 6) is below 0.1 µM; in assay [2] (Table 6, read-out: L858R BaF3), below 0.1 µM.
Turning to `C=CC(=O)N1CC[C@@H](N2Cc3cnc(Nc4ccc(N5CCN(C)CC5)cc4)nc3N(C)C2=O)c2ccccc21` [Compound 049, 1-methyl-7-[4-(4-methylpiperazin-1-yl)anilino]-S-[(4R)-1-prop-2-enoyl-3,4-dihydro-2H-quinolin-4-yl]-4H-pyrimido[4,5-d]pyrimidin-2-one], the GI50 in assay [1] (Table 6) is below 0.1 µM; in assay [2] (Table 6, read-out: L858R BaF3), below 0.1 µM.
As to `C=CC(=O)Nc1cccc2[nH]cc(CN3Cc4cnc(Nc5ccc(N6CCN(C)CC6)cc5)nc4N(C)C3=O)c12` [Compound 050], the GI50 in assay [1] (Table 6) is at least 2.5 µM; in assay [2] (Table 6, read-out: L858R BaF3) it was at least 2.5 µM.
In the case of `C=CC(=O)N1CCC(N2Cc3cnc(Nc4ccc(N5CCN(C)CC5)cc4)nc3N(c3cccc(NC(C)=O)c3)C2=O)c2ccccc21` (stereo not shown) [Compound 051], the GI50 was 0.5 to 2.5 µM in assay [1] (Table 6) and 0.1 to 0.5 µM in assay [2] (Table 6, read-out: L858R BaF3).
The like results for `C=CC(=O)N1CCC(N2Cc3cnc(Nc4ccc(N5CCN(C)CC5)c(-c5cnn(C)c5)c4)nc3N(C)C2=O)c2ccccc21` (stereo not drawn) [Compound 052, 1-methyl-7-[4-(4-methylpiperazin-1-yl)-S-(1-methylpyrazol-4-yl)anilino]-S-(1-prop-2-enoyl-3,4-dihydro-2H-quinolin-4-yl)-4H-pyrimido[4,5-d]pyrimidin-2-one] were, in that order, 0.1 to 0.5 µM and below 0.1 µM.
`C=CC(=O)N1CC2(CC(N3Cc4cnc(Nc5ccc(N6CCN(C)CC6)cc5)nc4N(C)C3=O)C2)C1` [Compound 053]: the GI50 in assay [1] (Table 6) is at least 2.5 µM; in assay [2] (Table 6, read-out: L858R BaF3), at least 2.5 µM.
As for `C=CC(=O)N1CCC(N2Cc3cnc(Nc4ccc(N5CCN(C)CC5)cc4)nc3N(C)C2=O)CC1` [Compound 054], the GI50 in assay [1] (Table 6) is at least 2.5 µM; in assay [2] (Table 6, read-out: L858R BaF3) it was at least 2.5 µM.
Consider `C=CC(=O)N1CCC(N2Cc3cnc(Nc4ccc(N5CCN(C)CC5)c(F)c4)nc3N(C)C2=O)c2ccccc21` (stereo not shown) [Compound 055], for which the GI50 in assay [1] (Table 6) was below 0.1 µM; in assay [2] (Table 6, read-out: L858R BaF3), below 0.1 µM.
`C=CC(=O)N1CCC(N2Cc3cnc(Nc4ccc(N5CCN(C)CC5)nc4)nc3N(C)C2=O)c2ccccc21` (stereo not shown) [Compound 056]: the GI50 was below 0.1 µM in assay [1] (Table 6) and below 0.1 µM in assay [2] (Table 6, read-out: L858R BaF3).
